Test results taken from ChEMBL document CHEMBL5154818, “Development of oxoisoaporphine derivatives with topoisomerase I inhibition and reversal of multidrug resistance in breast cancer MCF-7/ADR cells” (Eur J Med Chem, 2022).

Key:
HepG2 = experiment: Antiproliferative activity against human HepG2 cells after 48 hrs by MTT assay; type: functional, cell-based; settings: HepG2, 48 h
MDA-MB-231 = experiment: Antiproliferative activity against human MDA-MB-231 cells after 48 hrs by MTT assay; type: functional, cell-based; settings: MDA-MB-231, 48 h
A549 = experiment: Antiproliferative activity against human A549 cells after 48 hrs by MTT assay; type: functional, cell-based; settings: A549, 48 h
L02 = experiment: Antiproliferative activity against human L02 cells after 48 hrs by MTT assay; type: functional, cell-based; settings: L02, 48 h
MCF7 [1] = experiment: Antiproliferative activity against human MCF7 cells after 48 hrs by MTT assay; type: functional, cell-based; settings: MCF7, 48 h
NCI/ADR-RES [2] = experiment: Antiproliferative activity against human MCF7/ADR cells after 48 hrs by MTT assay; type: functional, cell-based
NCI/ADR-RES [3] = experiment: Reversal of multidrug resistant activity in human MCF7/ADR cells after 48 hrs by MTT assay; type: functional, cell-based
MCF7 [4] = experiment: Antiproliferative activity against human MCF7 cells assessed as growth inhibition at 3 uM after 48 hrs by MTT assay relative to control; type: functional; settings: read-out: GI
Calf thymus DNA [5] = experiment: Binding affinity to calf thymus DNA assessed as red shift in absorption spectra at 20 uM by UV-vis absorption spectroscopy; type: nucleic-acid assay; settings: Bos taurus
Calf thymus DNA [6] = experiment: Binding affinity to calf thymus DNA assessed as hypochromicity at 20 uM measured by UV-vis absorption spectroscopy; type: nucleic-acid assay; settings: Bos taurus

| SMILES | IC50 (HepG2) [µM] | IC50 (MDA-MB-231) [µM] | IC50 (A549) [µM] | IC50 (MCF7 [1]) [µM] | OD (Calf thymus DNA [5]) [nm] | Activity (Calf thymus DNA [6]) [%] | IC50 (L02) [µM] | IC50 (NCI/ADR-RES [2]) [µM] | IC50 (NCI/ADR-RES [3]) [µM] | inhibition of growth at 3 µM (MCF7 [4]) [%] |
| --- | --- | --- | --- | --- | --- | --- | --- | --- | --- | --- |
| CN1CCN(CCCOc2ccc3c4c(nccc24)-c2ccccc2C3=O)CC1 | 9.67 | 10.5 | 10 | 7.46 | – | – | 25.9 | 18.3 | 11.4 | 8.89 |
| CC1CCCCN1CCCCOc1ccc2c3c(nccc13)-c1ccccc1C2=O (stereo not drawn) | 10.1 | 8.46 | 8.46 | 9.95 | 1.6 | 22 | 28.4 | 15.2 | 1.82 | 3.7 |
| Cc1cn(CCCCOc2ccc3c4c(nccc24)-c2ccccc2C3=O)cn1 | 11.1 | 9.47 | 9.63 | 9.42 | – | – | 28.2 | 13.6 | – | – |
| O=C1c2ccccc2-c2nccc3c(OCCCn4ccnc4[N+](=O)[O-])ccc1c23 | 13.1 | 12 | 10.3 | 10.1 | – | – | 39.6 | 16.7 | – | – |
| COc1ccc(CCN(C)CCCC(C#N)(c2ccc(OC)c(OC)c2)C(C)C)cc1OC (stereo not drawn) | – | – | – | – | – | – | – | – | 2.83 | – |
| COc1cccc2c1C(=O)c1c(O)c3c(c(O)c1C2=O)C[C@@](O)(C(=O)CO)C[C@@H]3O[C@H]1C[C@H](N)[C@H](O)[C@H](C)O1 [DOXORUBICIN] | – | – | – | – | – | – | 0.18 | – | – | – |
| O=C1c2ccccc2-c2nccc3cccc1c23 | 28.2 | 32.2 | 26.2 | 24 | – | – | > 50 | 40.9 | – | – |
| O=C1c2ccccc2-c2nccc3c(OCCCN4CCOCC4)ccc1c23 | 10.3 | 9.52 | 9.23 | 7.58 | – | – | 32.4 | 14.6 | 1.81 | 3.73 |
| O=C1c2ccccc2-c2nccc3c(OCCCCN4CCOCC4)ccc1c23 | 10.3 | 9.43 | 9.63 | 8.46 | – | – | 22.9 | 19.3 | 6.12 | 17.4 |
| O=C1c2ccccc2-c2nccc3c(OCCCCn4cnc([N+](=O)[O-])c4)ccc1c23 | 14.3 | 11.4 | 12.2 | 9.34 | – | – | > 50 | 18.3 | – | – |
| O=C1c2ccccc2-c2nccc3c(OCCCCn4ccnc4[N+](=O)[O-])ccc1c23 | 10.9 | 10 | 10.6 | 9.78 | – | – | 37.3 | 13.5 | – | – |
| O=C1c2ccccc2-c2nccc3c(OCCCn4cnc([N+](=O)[O-])c4)ccc1c23 | 10.5 | 8.29 | 9.73 | 9.03 | – | – | 21.1 | 18.4 | – | – |
| Cc1cn(CCCOc2ccc3c4c(nccc24)-c2ccccc2C3=O)cn1 | 12 | 12.1 | 11.2 | 9.35 | – | – | 23.8 | 17.1 | – | – |
| CN1CCN(CCCCOc2ccc3c4c(nccc24)-c2ccccc2C3=O)CC1 | 11.9 | 11.1 | 11.1 | 8.67 | – | – | > 50 | 13.2 | 1.8 | 6.68 |

Continued, in another order:

| IC50 (HepG2) [µM] | IC50 (MDA-MB-231) [µM] | IC50 (A549) [µM] | IC50 (MCF7 [1]) [µM] | OD (Calf thymus DNA [5]) [nm] | Activity (Calf thymus DNA [6]) [%] | SMILES | IC50 (L02) [µM] | IC50 (NCI/ADR-RES [2]) [µM] | IC50 (NCI/ADR-RES [3]) [µM] | inhibition of growth at 3 µM (MCF7 [4]) [%] |
| --- | --- | --- | --- | --- | --- | --- | --- | --- | --- | --- |
| 8.67 | 8.29 | 7.36 | 10 | – | – | O=C1c2ccccc2-c2nccc3c(OCCCCCn4cnc([N+](=O)[O-])c4)ccc1c23 | 23.8 | 11.5 | – | – |
| 8.13 | 7.18 | 6.09 | 9.29 | – | – | O=C1c2ccccc2-c2nccc3c(OCCCCCn4ccnc4[N+](=O)[O-])ccc1c23 | 30.2 | 10.2 | – | – |
| 8.42 | 7.34 | 6.17 | 10.2 | – | – | N#Cc1ncn(CCCCOc2ccc3c4c(nccc24)-c2ccccc2C3=O)c1C#N | 26.8 | 10.1 | – | – |
| 7.46 | 10.2 | 8.53 | 7.95 | – | – | O=C1c2ccccc2-c2nccc3c(OCCCCn4cnc(Br)c4)ccc1c23 | 32.3 | 12.1 | – | – |
| 6.56 | 7.94 | 7.48 | 8.32 | 2 | 28.5 | CC1CCCCN1CCCOc1ccc2c3c(nccc13)-c1ccccc1C2=O (stereo not drawn) | 19.5 | 16.2 | 0.39 | 19.7 |
| 8.07 | 8.48 | 6.37 | 6.01 | – | – | O=C1c2ccccc2-c2nccc3c(OCCN4CCOCC4)ccc1c23 | > 50 | 11.2 | 10.1 | 8.33 |
| 8.19 | 9.33 | 7.26 | 6.01 | – | – | CN1CCN(CCOc2ccc3c4c(nccc24)-c2ccccc2C3=O)CC1 | 22.4 | 13.2 | 2.9 | 9.48 |
| 7.29 | 7.39 | 5.88 | 7.65 | – | – | N#Cc1ncn(CCCCCOc2ccc3c4c(nccc24)-c2ccccc2C3=O)c1C#N | 31.1 | 10.1 | – | – |
| 8.12 | 8.61 | 8.95 | 6.09 | – | – | O=C1c2ccccc2-c2nccc3c(OCCCn4cnc(Br)c4)ccc1c23 | 36.8 | 11.2 | – | – |
